For data set [1], the system named is C57BL/6 mice fed high fat diet (HFD). The data set can be described thus: HFD induced weight gain and hepatic steatosis, NCT in HFD chow for 10 weeks. It counts as in vivo. Here is the method: (§1) NCT oral administration. Four-week-old male C57BL/6J (JAX cat #000664) mice were purchased from Jackson laboratory and were maintained in a 12 h light/dark cycle throughout the experiment. Prior to the experiments, mice were acclimated for 2 weeks. Six-week-old mice with similar body weights were randomized to a normal diet (NC), a high fat diet (HFD) (Research Diets, cat #D12492 60 kcal % fat) or HFD containing 4000 ppm NCT (HFD+NCT) (Research Diets, 60 kcal % fat+4000 ppm NCT), which was calculated to provide approximately 400 mg/kg/d NCT. HFD chow containing NCT was made with gray dye to distinguish it from regular HFD chow that had green dye. Mice for each treatment group were placed in separate cages. Equal amounts of fresh chow were provided every week to all mice. Body weight gain and food intake were measured every week for 10 weeks. After 10 weeks of chow treatment, mice were sacrificed for analysis. All animal experiments were approved by the Institutional Animal Care and Use Committee (IACUC) of the Sanford Burnham Prebys Medical Discovery Institute in accordance with national regulations. Sample size was chosen based on the prior study of NCT delivered by IP injection.
Sample collection. Mouse samples were collected as described previously. Briefly, on the final day of treatment mice received dextrose (3 g/kg of body weight) by IP injection to stimulate insulin secretion, which inhibits FFA release from adipocytes, leaving liver-derived FFA as the major source of circulating FFA. One hour later, blood samples were collected via retro-orbital bleeding and mice were euthanized using pentobarbital. Mice were dissected aseptically and liver, epididymal fat, and body weights were measured and pictures taken. Dissected liver samples were washed immediately in sterile cold PBS and cut into small pieces. Half of the liver samples were snap frozen using liquid nitrogen and stored at −80° C. for RNA, protein isolation, and liver lysate preparations. The other half were fixed in 4% of cold paraformaldehyde (PFA, Santa Cruz Biotechnology, USA) and processed for histomorphometry and immunofluorescence.
Oil Red O staining (in vivo) and analysis. Oil red O staining was performed as described previously. Slides containing frozen liver tissue sections from mice were air dried for 10-20 min followed by rehydration in distilled water. Sections were immersed in absolute propylene glycol (Cat #151957, MP Biomedicals, LLC, USA) for 2 min followed by 0.5% in Oil red O solution (Cat #K043, Poly Scientific R&D, USA) for 2 h. Slides were then differentiated in 85% propylene glycol solution, washed with dH2O for 2 h, and mounted using glycerin jelly mounting medium. All slides were scanned at a magnification of ×20 using the Aperio Scanscope FL system (Aperio Technologies Inc., Vista, CA, USA). The liver area stained with oil red O was measured using image J software as described, with some modifications as follow, Oil red O-stained liver images were opened in Image J software. Using the Analyze>Set Scale command, the scale bar of the images was set to 200 μm. RGB images were then converted into grayscale images using the Image>Type>RGB Stack command and were split into red, blue and green channels. Using the Image>Adjust>Threshold command, the threshold was manually set to highlight the Oil red O-stained lipid droplets in the green channel. The same threshold was used for all the images in all treatment groups and the % oil red O-stained area was obtained using the Analyze->Measure tool command. Fold change was calculated by normalizing the values to images from mice fed normal chow.
Triglyceride analysis. The TG level in mouse liver, serum, and stool was measured according to manufacturer's instructions using the Triglyceride calorimetric Assay Kit (Cat #10010303, Cayman Chemicals, USA). Liver and stool TG was normalized with liver and stool weight, respectively. Fold change was calculated by normalizing to values from mice fed NC. […]

Data set [2] has as its system mitochondrial fatty acid oxidation (FAO) activity. The data set can be described thus: Fatty acid oxidation assay in liver lysate. It counts as in vivo, mouse. The method, then:
as §1
Fatty acid oxidation assay. FAO in liver lysate was measured according to manufacturer's instructions using a calorimetric assay kit (Cat #E-141, Biomedical Research Service Center, State University of New York, Buffalo, NY).
Thus, the effect of NCT on FAO appeared to be a secondary rather than primary effect.

The test system of data set [3] is total cellular nicotinamide adenine dinucleotide (NAD). The data set is described as follows: Nicotinamide adenine dinucleotide assay in liver lysate. Type of data set: in vivo, mouse. The settings on record: HFD+NCT vs HFD, 10 weeks. The method, then:
as §1
Nicotinamide adenine dinucleotide assay. Total NAD level in liver lysate was analyzed according to manufacturer's instructions using a calorimetric NAD+/NADH assay kit (Cat #MET-5014, Cell Biolabs, Inc. USA). […]

In another data set the test system is SDHA. The data set is described as follows: Western blotting of liver, SDHA. To be noted: HFD+NCT vs HFD, FIGS. 3D-3F. It counts as in vivo, mouse. Here is the method: as §1
Western blotting. Mouse liver extracts were prepared by incubation in RIPA buffer (Invitrogen) containing protease inhibitors (Calbiochem, SanDiego, CA). Protein was quantified by BCA assay (Thermo Scientific). […]
A general note: Immunoblotting shows a protein as a band on a membrane.

A further data set concerns SDHA mRNA. The data set is described as follows: RT-PCR of mouse liver, SDHA. Type of data set: in vivo. The settings on record: HFD+NCT vs HFD, FIGS. 3G and 3H. Here is the method:
as §1, with “All animal experiments were approved by the Institutional Animal Care and Use Committee (IACUC) of the Sanford Burnham Prebys Medical Discovery Institute in accordance with national regulations. Sample size was chosen based on the prior study of NCT delivered by IP injection.” left out
(§2) RT-PCR. […] Quantitative real time PCR (RT-PCR) analysis was performed using SYBR® Select Master Mix (Applied Biosystems) and an ABI 7900HT thermal cycler (Applied Biosystems, Thermo Fisher Scientific). Ct values were normalized to 18s rRNA and are expressed as fold change over samples from mice fed NC or cultured human hepatocytes without NCT.

The next data set has as its system TNFα mRNA. The data set can be described thus: RT-PCR of mouse liver, TNFα. It counts as in vivo. The settings on record: HFD+NCT vs HFD, FIG. 5B. Here is the method:
as §1, with “All animal experiments were approved by the Institutional Animal Care and Use Committee (IACUC) of the Sanford Burnham Prebys Medical Discovery Institute in accordance with national regulations. Sample size was chosen based on the prior study of NCT delivered by IP injection.” left out
as §2

[4] abbreviates: HFD containing 4000 ppm NCT, end of the experiment at 10 weeks.
Where [5] appears, read: mice fed HFD containing NCT vs HFD alone.
Setting [6] is: liver lysate, HFD+NCT vs HFD, 10 weeks.

Entries after “also recorded” stand apart in the source; their conditions may differ.

`O=C(/C=C/c1ccc(O)c(O)c1)NCCc1ccc(O)cc1` [NCT, N-trans caffeoyltyramine]: the “body weight compared with mice fed HFD alone” value in data set [1] (C57BL/6 mice, HFD containing 4000 ppm NCT, 10 weeks) is “substantially less; also recorded: weighed less”. Besides, the “week at which lower body weight than HFD alone became evident” value in data set [1] (HFD containing 4000 ppm NCT) turned out to be 5 week. In data set [1] (setting [4]), the “body weight less than mice fed HFD” value is approximately 10 g and the “difference in body weight vs mice fed HFD” value is recorded as 35-40%. Also, in data set [1] (HFD+NCT vs HFD, 10 weeks), the “Oil Red O staining of liver” value is “decreased”, the liver redness entry was “increase; also recorded: redder”, the liver size result was “reductions” and the liver weight entry is “lower”. For the same compound, in data set [1] (HFD+NCT vs HFD, 10 weeks), the obesity entry is recorded as “markedly less obese”, the subcutaneous fat result was “substantially less” and the visceral adiposity result was “reductions”. In addition, the “hepatic TG level” value in data set [1] (HFD+NCT vs HFD, 10 weeks, normalized to liver weight) is given as “decreased”. For the same compound, in data set [1] (HFD+NCT vs HFD, end of study, normalized with total body weight), the “epididymal fat pad weight” value is listed as “no change”. Moreover, the “toxicity from NCT consumption” value in data set [1] (mice fed HFD containing NCT) is “no evidence of any toxicity”. Further, in data set [1] (setting [5]), the mitochondrial mass result was “increased”. Besides, in data set [2] (setting [6]), the “FAO activity in the presence of octanoyl CoA” value is “increase”, the “baseline FAO activity in the absence of octanoyl CoA” value was “increase” and the “overall FAO activity in the assay” value is listed as “unchanged; also recorded: non-significant”. Moreover, the fatty acid oxidation entry in data set [2] (setting [5]) was “increased”. The “total cellular NAD in liver” value in data set [3] is recorded as “increased; also recorded: substantial increase”. In addition, the “SDHA protein level in liver” value with SDHA was “reverse the depression”. Besides, in the data set with SDHA mRNA, the “SDHA mRNA in mouse liver” value is on record as “increase”. For the same compound, the “TNFα level in livers of mice on HFD” value in the data set on TNFα mRNA is listed as “decreased”. The “TNFα level in livers of mice on HFD” value in the data set with TNFα mRNA (listed as Compound A) was “decrease”.

The values are drawn from patent publication US20240315991A1, “USES OF HNF4 ALPHA AGONISTS” (Sanford Burnham Prebys Medical Discovery Institute, priority 2023, published 2024).
